Reference: patent publication EP0537092A1, “Infracellular vesicular vectors and their application in cosmetic and medical compositions and culture media” (priority 1991, dated 1993)
Read-outs that look alike come from different tables or passages of the source.

What was measured:
Assay type in all cases: cell-based, humaine
[1] = system: fibroblastes; conditions: for prolifération des fibroblastes traités avec le Palmitate d'hydroxyproline: 10^4 cellules par puit
Method: (§1) Les résultats des essais présentés ci-après ont été obtenus selon la méthodologie suivante : Conditions de culture : les fibroblastes sont obtenus à partir d'explants de peau humaine. Les cellules sont maintenues en culture dans du milieu DMEM (Gibco) additionné de 10 % de sérum de veau foetal (Gibco) et d'antibiotiques (pénicilline 100 U/ml, streptomycine 100 µg/ml).
(§2) Les subcultures sont réalisées par trypsination (Trypsin-EDTA, Gibco). Les cellules sont utilisées du 2e au 10e passage.
(§3) Conditions de traitements : Les cultures de fibroblastes témoins se réferent aux cultures avec vecteurs sans principe actif, en quantité similaire aux autres traitements. Les cultures traitées avec la molécule en solution se réfèrent aux conditions de la culture témoin et de la molécule sous forme soluble.
(§4) Les cultures traitées avec la forme vectoriale de la molécule impliquent que la molécule active soit inclue préalablement dans les vecteurs.
[…] Puis on ajoute le sel de tétrazolium jaune (5 mg / ml). Il est réduit par les réductases mitochondriales des cellules vivantes en un produit formazan violet qui est ensuite solubilisé par de l'HCl 0,04 N dans de l'isopropanol.
La réaction colorée est lue à une longueur d'onde de 570 nm par un Multiskan Titertek (Flow Laboratories) et exprimée en densité optique.

[2] = system: collagène de type III; test: radioimmunoassay of soluble collagen type III in fibroblast culture supernatant
Method: as §1, §2, §3, §4
(§5) Evaluation des collagènes solubles par dosage radioimmunologique : On prélève 100 µl de surnageant de culture et on y ajoute 100 µl d'anticorps anticollagène de type I ou anti-collagène de type III et 200 µl de PBS.

[3] = system: collagénase interstitielle (MMP-1); test: collagenase activity in the culture medium of fibroblasts; conditions: for Collagénase: Temps : 48 h, factor of change (summary table)
Method: as §1, §2, §3, §4
Mesure de l'activité collagénasique dans le milieu de culture
On mesure la collagénase interstitielle qui dégrade les collagènes interstitiels natifs de type I-III. • a) Préparation du substrat : le collagène de type I, marqué au carbone-14, en solution dans CH3COOH 0,1 M est neutralisé à pH 7,4 par du Tris 1 M et dilué avec le tampon NaCl 0,15 M/CaCl2, 4 mM/Tris-HCl 50 mM, pH 7,4 contenant du NEM 0,5 mM et du PMSF 0,1mM à raison de […] substrat (= 10000 cpm/essai). • b) Dosage de la collagénase: 100 µl de milieu sont activés par 10 µl de trypsine (1 mg/ml) à 37°C pendant 10 mn, suivi de l'addition de 10 µl de SBTI (5 mg/ml): 10 mn à température ambiante. 100 µl de milieu sont aussi testés sans activation par la trypsine (mesure de la forme active de l'enzyme).
Le substrat (10000 cpm/essai) est ajouté, éventuellement en présence d'EDTA 25 mM, le volume final étant de 250 µl. La réaction se déroule pendant 18 h à 25°C puis est stoppée par addition de 20 µl d'EDTA 250 mM (10 mn à température ambiante).Le mélange est ensuite chauffé 10 mn à 39°C.
Le collagène non dégradé est précipité par l'éthanol à la concentration finale de 18 % (30 mn à température ambiante).
Finalement, le mélange est centrifugé à 6000 g pendant 30 mn à 4°C. Des aliquots de 200 µl des surnageants sont mélangés avec 5 ml de liquide scintillant aqueux puis comptés pour leur radioactivité.
Une unité de collagénase est définie comme la quantité d'enzyme nécessaire pour dégrader 1 µg de collagène natif par heure à 25°C.

[4] = system: fibroblastes; test: summary conclusion on modulation of fibroblast activity (Tableau 10); conditions: Temps : 48 h
Source text: Le tableau 10 ci-après résume les résultats obtenus. TABLEAU 10
Ce tableau montre bien la capacité qu'ont les vecteurs selon l'invention à moduler l'activité des fibroblastes lorsqu'ils portent à leur surface certaines fonctions hydrophiles fixées sur ledit vecteur par un ester ou une amide d'acide gras.

[5] = system: collagène de type I
Method: as §1, §2, §3, §4, §5

CCCCCCCCCCCCCCCC(=O)OC[C@H](O)[C@H]1OC(=O)C(O)=C1O [palmitate d'ascorbyle en solution, palmitate d'ascorbyle]
Cytotoxicité Test MTT ([1]; Temps : 48 h, 25 µg/ml): non
fold induction at 25 µg/mL ([2]; Skin fibroblast, Temps : 48 h, 25 µg/ml, factor of change (summary table), read-out: Synthèse collag. III): 30
Collagénase ([3]; 25 µg/ml): =
CONCLUSION à 4.10⁵cell. ([4]; 25 µg/ml): Stimulants non sélectifs

Palmitate d'hydroxyproline [Palmitate d'hydroxyproline Solution]
prolifération des fibroblastes traités avec le Palmitate d'hydroxyproline ([1]; 24 heures, 1 µg / ml): 0,493 ± 0,029 densité optique
prolifération des fibroblastes traités avec le Palmitate d'hydroxyproline ([1]; 24 heures, 5 µg / ml): 0,492 ± 0,016 densité optique
prolifération des fibroblastes traités avec le Palmitate d'hydroxyproline ([1]; 24 heures, 10 µg / ml): 0,502 ± 0,019 densité optique
prolifération des fibroblastes traités avec le Palmitate d'hydroxyproline ([1]; 24 heures, 20 µg / ml): 0,457 ± 0,022 densité optique
prolifération des fibroblastes traités avec le Palmitate d'hydroxyproline ([1]; 48 heures, 1 µg / ml): 0,494 ± 0,012 densité optique
prolifération des fibroblastes traités avec le Palmitate d'hydroxyproline ([1]; 48 heures, 5 µg / ml): 0,513 ± 0,025 densité optique
prolifération des fibroblastes traités avec le Palmitate d'hydroxyproline ([1]; 48 heures, 10 µg / ml): 0,511 ± 0,020 densité optique
prolifération des fibroblastes traités avec le Palmitate d'hydroxyproline ([1]; 48 heures, 20 µg / ml): 0,471 ± 0,028 densité optique
prolifération des fibroblastes traités avec le Palmitate d'hydroxyproline ([1]; 72 heures, 1 µg / ml): 0,490 ± 0,019 densité optique
prolifération des fibroblastes traités avec le Palmitate d'hydroxyproline ([1]; 72 heures, 5 µg / ml): 0,500 ± 0,028 densité optique
prolifération des fibroblastes traités avec le Palmitate d'hydroxyproline ([1]; 72 heures, 10 µg / ml): 0,496 ± 0,017 densité optique
dose à partir de laquelle une cytotoxicité est détectée ([1]; human, skin fibroblasts): ≥ 20 µg/mL
synthèse de collagène type III par des fibroblastes traités avec le palmitate d'hydroxyproline ([2]; 24 heures, 1 µg/ml): 295 ± 24 ng/mL
synthèse de collagène type III par des fibroblastes traités avec le palmitate d'hydroxyproline ([2]; 24 heures, 5 µg/ml): 281 ± 16 ng/mL
synthèse de collagène type III par des fibroblastes traités avec le palmitate d'hydroxyproline ([2]; 48 heures, 1 µg/ml): 588 ± 69 ng/mL
synthèse de collagène type III par des fibroblastes traités avec le palmitate d'hydroxyproline ([2]; 48 heures, 5 µg/ml): 519 ± 20 ng/mL
synthèse de collagène type III par des fibroblastes traités avec le palmitate d'hydroxyproline ([2]; 72 heures, 1 µg/ml): 628 ± 161 ng/mL
synthèse de collagène type III par des fibroblastes traités avec le palmitate d'hydroxyproline ([2]; 72 heures, 5 µg/ml): 548 ± 24 ng/mL
Collagénase ([3]; 40 µg/ml): =
dose qui stimule de manière significative la synthèse de la collagénase ([3]; cultures de fibroblastes): 1 µg/mL
synthèse de collagène type I par des fibroblastes traités avec le palmitate d'hydroxyproline ([5]; 24 heures, 1 µg/ml): 268 ± 18 ng/mL
synthèse de collagène type I par des fibroblastes traités avec le palmitate d'hydroxyproline ([5]; 24 heures, 5 µg/ml): 232 ± 10 ng/mL
synthèse de collagène type I par des fibroblastes traités avec le palmitate d'hydroxyproline ([5]; 48 heures, 1 µg/ml): 519 ± 37 ng/mL
synthèse de collagène type I par des fibroblastes traités avec le palmitate d'hydroxyproline ([5]; 72 heures, 1 µg/ml): 513 ± 77 ng/mL
synthèse de collagène type I par des fibroblastes traités avec le palmitate d'hydroxyproline ([5]; 72 heures, 5 µg/ml): 470 ± 5 ng/mL
CONCLUSION à 4.10⁵cell. ([4]; 40 µg/ml): inhibit. des collagènes.

O=C(O)[C@@H]1C[C@@H](O)CN1 [Hydroxyproline libre, Hydroxyproline]
Cytotoxicité Test MTT ([1]; Temps : 48 h, 10 µg/ml): non
Prolifération ([1]; Temps : 48 h, 10 µg/ml, factor of change (summary table)): =
fold induction at 10 µg/mL ([2]; Skin fibroblast, Temps : 48 h, 10 µg/ml, factor of change (summary table), read-out: Synthèse collag. III): 2
Collagénase ([3]; 10 µg/ml): =
CONCLUSION à 4.10⁵cell. ([4]; 10 µg/ml): Stimulant sélectif du collagène I
